We go through two compounds from patent US20250255876A1, “COMPOSITIONS AND METHODS FOR CANCER TREATMENT” (ARIEL SCIENTIFIC INNOVATIONS LTD., priority 2021, published 2025).

What all share (assay type): cell-based
For one test, the system named is H1975 cells. Put plainly: Colony survival assay, H1975 cells. To be noted: H1975, 5 μM cisplatin. As to the method:
(§1) H1975 cells were plated in 24-well plates at 50,000 cells/well (for 50 µM inhibitor treatment) or 20,000 cells/well (for […] inhibitor treatment). U2OS and A549 cells were plated in 24-well plates at 5000 cells/well. The next day, cells were treated with varying concentrations of cisplatin, either with or without added inhibitor compound. After 48 hours of cisplatin+compound treatment, the cells were washed 3 times with PBS×1 and fresh media applied. After 4 days of recovery, the cells were stained with methylene blue and imaged using a Nikon SMZ25 stereomicroscope. The images were analyzed using the ImageJ (National Institutes of Health) area measurement tool to quantify total colony size in each well.
(§2) Cells were plated in 24-well plates at 50,000 cells/well (H1975 line) or 10,000 cells/well (A549 line). The next day, cells were treated with varying concentrations of cisplatin ([…]), with or without 50 μM compound. For the untreated control wells containing only cisplatin, DMSO was applied in place of the compound. After 48 hours of cisplatin+compound treatment, the cells were washed 3 times with PBS and fresh media was applied. After 4 days of recovery, the cells were stained with methylene blue and imaged using a Nikon SMZ25 stereomicroscope. The images were analyzed using the ImageJ (National Institutes of Health) area measurement tool to quantify total colony size in each well.
(§3) In order to assess the ability of the selected compounds to sensitize cells during cisplatin treatment, the inventors established a colony survival assay comparing the viability of cells treated with cisplatin alone or with combined treatment of cisplatin and 50 μM compound. For the compound screen, we used two lung cancer cell lines: human non-small lung carcinoma H1975 cells, and epithelial lung adenocarcinoma A549 cells. Out of ten compounds tested, compounds c #2 and c #3 were identified with the most significant sensitization effect and were chosen for future characterization. […] Survival rate was reduced from 90% in 5 μM cisplatin treatment to 50% survival in the combined treatment (FIGS. 11A-B). H1975 cells presented similar behavior following doxorubicin treatment (FIG. 11C). IC50 was calculated using linear regression, presenting a clear reduction of cisplatin's IC50 in all treatments.

A further test relates to A549 cells. Description: Colony survival assay, A549 cells. To be noted: A549, 5 μM cisplatin. Here is the method: as §1, §2, §3
For another test, the system named is U2OS cells. Put plainly: Colony survival assay, U2OS cells. To be noted: varying cisplatin, 48 hours. Here is the method: as §1

SMILES strings stand for the structures.

For the compound `N.N.[Cl][Pt][Cl]` [cisplatin, cis-diamminedichloroplatinum(II), reference compound], the “survival rate, cisplatin alone” value with H1975 cells and with A549 cells was 90% throughout. For `CCCC(=O)Nc1cccc(C(=O)Nc2nnc(COC)s2)c1` [Compound 9], in the test on U2OS cells, the “cell survival with cisplatin plus inhibitor” value is “no activity”.
